Source: ChEMBL document CHEMBL1275257, “Antimicrobial activity of CHIR-090, an inhibitor of lipopolysaccharide biosynthesis, against the Burkholderia cepacia complex” (2010)
Converted amounts (≈) assume the structure as drawn. The source made the active and inactive calls. The rule behind the calls is not given here.

Columns and labels:
[1] = system: Pseudomonas aeruginosa; test: Antimicrobial activity against Pseudomonas aeruginosa ATCC 27853; type: functional
[2] = system: Pseudomonas aeruginosa; test: Antimicrobial activity against Pseudomonas aeruginosa ATCC 10145; type: functional
[3] = system: Escherichia coli; test: Antimicrobial activity against Escherichia coli 25922; type: functional
[4] = system: Burkholderia pyrrocinia; test: Antimicrobial activity against genomovar type IX Burkholderia pyrrocinia C1469 at 40 ug/disk by disk diffusion growth inhibition assay; type: functional
[5] = system: Burkholderia multivorans; test: Antimicrobial activity against genomovar type II Burkholderia multivorans C5393; type: functional
[6] = system: Burkholderia cenocepacia; test: Antimicrobial activity against genomovar type III Burkholderia cenocepacia ATCC 17765 at 40 ug/disk by disk diffusion growth inhibition assay; type: functional, organism-based
[7] = system: Burkholderia anthina; test: Antimicrobial activity against genomovar type VIII Burkholderia anthina C1765 at 40 ug/disk by disk diffusion growth inhibition assay; type: functional; details: read-out: DIZ
[8] = system: Burkholderia cepacia; test: Antimicrobial activity against genomovar type I Burkholderia cepacia CEP509 at 40 ug/disk by disk diffusion growth inhibition assay; type: functional, organism-based
[9] = system: Burkholderia multivorans; test: Antimicrobial activity against genomovar type II Burkholderia multivorans 249-2; type: functional
[10] = system: Burkholderia cenocepacia; test: Antimicrobial activity against genomovar type III Burkholderia cenocepacia PC184 at 40 ug/disk by disk diffusion growth inhibition assay; type: functional; details: read-out: DIZ
[11] = system: Burkholderia ambifaria; test: Antimicrobial activity against genomovar type VII Burkholderia ambifaria CEP0996 at 40 ug/disk by disk diffusion growth inhibition assay; type: functional; details: read-out: DIZ
[12] = system: Burkholderia pyrrocinia; test: Antimicrobial activity against genomovar type IX Burkholderia pyrrocinia ATCC 39277 at 40 ug/disk by disk diffusion growth inhibition assay; type: functional; details: read-out: DIZ
[13] = system: Burkholderia multivorans; test: Antimicrobial activity against genomovar type II Burkholderia multivorans C1962; type: functional
[14] = system: Burkholderia vietnamiensis; test: Antimicrobial activity against genomovar type V Burkholderia vietnamiensis LMG 10929 at 40 ug/disk by disk diffusion growth inhibition assay; type: functional; details: read-out: DIZ
[15] = system: Burkholderia multivorans; test: Antimicrobial activity against genomovar type II Burkholderia multivorans C5393 at 40 ug/disk by disk diffusion growth inhibition assay; type: functional; details: read-out: DIZ
[16] = system: Burkholderia anthina; test: Antimicrobial activity against genomovar type VIII Burkholderia anthina W92 at 40 ug/disk by disk diffusion growth inhibition assay; type: functional
[17] = system: Burkholderia cenocepacia; test: Antimicrobial activity against genomovar type III Burkholderia cenocepacia SAL1 at 40 ug/disk by disk diffusion growth inhibition assay; type: functional, organism-based
[18] = system: Burkholderia stabilis; test: Antimicrobial activity against genomovar type IV Burkholderia stabilis C7322 at 40 ug/disk by disk diffusion growth inhibition assay; type: functional; details: read-out: DIZ
[19] = system: Burkholderia dolosa; test: Antimicrobial activity against genomovar type VI Burkholderia dolosa CEP021 at 40 ug/disk by disk diffusion growth inhibition assay; type: functional; details: read-out: DIZ
[20] = system: Burkholderia multivorans; test: Antimicrobial activity against genomovar type II Burkholderia multivorans C1576; type: functional
[21] = system: Burkholderia multivorans; test: Antimicrobial activity against genomovar type II Burkholderia multivorans LMG 13010 at 40 ug/disk by disk diffusion growth inhibition assay; type: functional; details: read-out: DIZ
[22] = system: Burkholderia anthina; test: Antimicrobial activity against genomovar type VIII Burkholderia anthina J2552 at 40 ug/disk by disk diffusion growth inhibition assay; type: functional
[23] = system: Burkholderia stabilis; test: Antimicrobial activity against genomovar type IV Burkholderia stabilis LMG 18888 at 40 ug/disk by disk diffusion growth inhibition assay; type: functional
[24] = system: Burkholderia dolosa; test: Antimicrobial activity against genomovar type VI Burkholderia dolosa STM1441 at 40 ug/disk by disk diffusion growth inhibition assay; type: functional; details: read-out: DIZ
[25] = system: Burkholderia multivorans; test: Antimicrobial activity against genomovar type II Burkholderia multivorans ATCC 17616; type: functional
[26] = system: Burkholderia multivorans; test: Antimicrobial activity against genomovar type II Burkholderia multivorans JTC at 40 ug/disk by disk diffusion growth inhibition assay; type: functional; details: read-out: DIZ
[27] = system: Burkholderia vietnamiensis; test: Antimicrobial activity against genomovar type V Burkholderia vietnamiensis LMG 16232 at 40 ug/disk by disk diffusion growth inhibition assay; type: functional; details: read-out: DIZ
[28] = system: Burkholderia cepacia; test: Antimicrobial activity against genomovar type I Burkholderia cepacia ATCC 17759 at 40 ug/disk by disk diffusion growth inhibition assay; type: functional, organism-based
[29] = system: Burkholderia multivorans; test: Antimicrobial activity against genomovar type II Burkholderia multivorans C1962 at 40 ug/disk by disk diffusion growth inhibition assay; type: functional; details: read-out: DIZ
[30] = system: Burkholderia pyrrocinia; test: Antimicrobial activity against genomovar type IX Burkholderia pyrrocinia ATCC 15958 at 40 ug/disk by disk diffusion growth inhibition assay; type: functional; details: read-out: DIZ
[31] = system: Burkholderia multivorans; test: Antimicrobial activity against genomovar type II Burkholderia multivorans CF-A1-1; type: functional
[32] = system: Burkholderia multivorans; test: Antimicrobial activity against genomovar type II Burkholderia multivorans 2492-2 at 40 ug/disk by disk diffusion growth inhibition assay; type: functional; details: read-out: DIZ
[33] = system: Burkholderia cenocepacia; test: Antimicrobial activity against genomovar type III Burkholderia cenocepacia J415 at 40 ug/disk by disk diffusion growth inhibition assay; type: functional; details: read-out: DIZ
[34] = system: Burkholderia dolosa; test: Antimicrobial activity against genomovar type VI Burkholderia dolosa E12 at 40 ug/disk by disk diffusion growth inhibition assay; type: functional; details: read-out: DIZ
[35] = system: Burkholderia vietnamiensis; test: Antimicrobial activity against genomovar type V Burkholderia vietnamiensis PC259 at 40 ug/disk by disk diffusion growth inhibition assay; type: functional; details: read-out: DIZ
[36] = system: Burkholderia multivorans; test: Antimicrobial activity against genomovar type II Burkholderia multivorans CFA11 at 40 ug/disk by disk diffusion growth inhibition assay; type: functional; details: read-out: DIZ
[37] = system: Burkholderia cenocepacia; test: Antimicrobial activity against genomovar type III Burkholderia cenocepacia J2315 at 40 ug/disk by disk diffusion growth inhibition assay; type: functional, organism-based
[38] = system: Burkholderia cenocepacia; test: Antimicrobial activity against genomovar type III Burkholderia cenocepacia CEP511 at 40 ug/disk by disk diffusion growth inhibition assay; type: functional, organism-based
[39] = system: Burkholderia cenocepacia; test: Antimicrobial activity against genomovar type III Burkholderia cenocepacia C5424 at 40 ug/disk by disk diffusion growth inhibition assay; type: functional; details: read-out: DIZ
[40] = system: Burkholderia ambifaria; test: Antimicrobial activity against genomovar type VII Burkholderia ambifaria AMMD at 40 ug/disk by disk diffusion growth inhibition assay; type: functional; details: read-out: DIZ
[41] = system: Burkholderia stabilis; test: Antimicrobial activity against genomovar type IV Burkholderia stabilis LMG 14086 at 40 ug/disk by disk diffusion growth inhibition assay; type: functional
[42] = system: Burkholderia dolosa; test: Antimicrobial activity against genomovar type VI Burkholderia dolosa AU0645 at 40 ug/disk by disk diffusion growth inhibition assay; type: functional; details: read-out: DIZ
[43] = system: Burkholderia anthina; test: Antimicrobial activity against genomovar type VIII Burkholderia anthina AU1293 at 40 ug/disk by disk diffusion growth inhibition assay; type: functional; details: read-out: DIZ
[44] = system: Burkholderia multivorans; test: Antimicrobial activity against genomovar type II Burkholderia multivorans C1576 at 40 ug/disk by disk diffusion growth inhibition assay; type: functional; details: read-out: DIZ
[45] = system: Burkholderia cenocepacia; test: Antimicrobial activity against genomovar type III Burkholderia cenocepacia C6433 at 40 ug/disk by disk diffusion growth inhibition assay; type: functional, organism-based
[46] = system: Burkholderia multivorans; test: Antimicrobial activity against genomovar type II Burkholderia multivorans JTC; type: functional
[47] = system: Burkholderia stabilis; test: Antimicrobial activity against genomovar type IV Burkholderia stabilis LMG 14294 at 40 ug/disk by disk diffusion growth inhibition assay; type: functional
[48] = system: Burkholderia vietnamiensis; test: Antimicrobial activity against genomovar type V Burkholderia vietnamiensis FC441 at 40 ug/disk by disk diffusion growth inhibition assay; type: functional; details: read-out: DIZ
[49] = system: Burkholderia multivorans; test: Antimicrobial activity against genomovar type II Burkholderia multivorans ATCC 17616 at 40 ug/disk by disk diffusion growth inhibition assay; type: functional; details: read-out: DIZ
[50] = system: Burkholderia cenocepacia; test: Antimicrobial activity against genomovar type III Burkholderia cenocepacia BC7 at 40 ug/disk by disk diffusion growth inhibition assay; type: functional, organism-based
[51] = system: Burkholderia cenocepacia; test: Antimicrobial activity against genomovar type III Burkholderia cenocepacia K562 at 40 ug/disk by disk diffusion growth inhibition assay; type: functional, organism-based
[52] = system: Burkholderia cepacia; test: Antimicrobial activity against genomovar type I Burkholderia cepacia ATCC 25416 at 40 ug/disk by disk diffusion growth inhibition assay; type: functional, organism-based
[53] = system: Burkholderia pyrrocinia; test: Antimicrobial activity against genomovar type IX Burkholderia pyrrocinia BC011 at 40 ug/disk by disk diffusion growth inhibition assay; type: functional; details: read-out: DIZ
[54] = system: Burkholderia ambifaria; test: Antimicrobial activity against genomovar type VII Burkholderia ambifaria ATCC 53266 at 40 ug/disk by disk diffusion growth inhibition assay; type: functional; details: read-out: DIZ

Compound: POLYMYXIN B
- MIC [1]: 3.13 µg/mL
- MIC [2]: 3.13 µg/mL
- MIC [3]: 0.78 µg/mL

Compound: C[C@@H](O)[C@H](NC(=O)c1ccc(C#Cc2ccc(CN3CCOCC3)cc2)cc1)C(=O)NO
- diameter of the inhibition zone (DIZ) [4]: inactive
- MIC [5]: 3.13 µg/mL (≈ 7.15 µM)
- diameter of the inhibition zone (DIZ) [6]: inactive
- zone of inhibition at 40 µg/disc [7]: 13 mm
- diameter of the inhibition zone (DIZ) [8]: inactive
- MIC [9]: 0.1 µg/mL (≈ 0.229 µM)
- zone of inhibition at 40 µg/disc [10]: 18 mm
- zone of inhibition at 40 µg/disc [11]: 22 mm
- zone of inhibition at 40 µg/disc [12]: 22 mm
- MIC [1]: 0.78 µg/mL (≈ 1.78 µM)
- MIC [13]: 3.13 µg/mL (≈ 7.15 µM)
- zone of inhibition at 40 µg/disc [14]: 23 mm
- zone of inhibition at 40 µg/disc [15]: 20 mm
- diameter of the inhibition zone (DIZ) [16]: inactive
- diameter of the inhibition zone (DIZ) [17]: inactive
- zone of inhibition at 40 µg/disc [18]: 14 mm
- zone of inhibition at 40 µg/disc [19]: 24 mm
- MIC [20]: 12.5 µg/mL (≈ 28.6 µM)
- zone of inhibition at 40 µg/disc [21]: 14 mm
- diameter of the inhibition zone (DIZ) [22]: inactive
- diameter of the inhibition zone (DIZ) [23]: inactive
- zone of inhibition at 40 µg/disc [24]: 21 mm
- MIC [25]: 6.25 µg/mL (≈ 14.3 µM)
- zone of inhibition at 40 µg/disc [26]: 23 mm
- zone of inhibition at 40 µg/disc [27]: 23 mm
- diameter of the inhibition zone (DIZ) [28]: inactive
- zone of inhibition at 40 µg/disc [29]: 24 mm
- zone of inhibition at 40 µg/disc [30]: 20 mm
- MIC [31]: 1.56 µg/mL (≈ 3.57 µM)
- zone of inhibition at 40 µg/disc [32]: 26 mm
- zone of inhibition at 40 µg/disc [33]: 21 mm
- MIC [2]: 0.78 µg/mL (≈ 1.78 µM)
- zone of inhibition at 40 µg/disc [34]: 23 mm
- zone of inhibition at 40 µg/disc [35]: 26 mm
- zone of inhibition at 40 µg/disc [36]: 22 mm
- diameter of the inhibition zone (DIZ) [37]: inactive
- diameter of the inhibition zone (DIZ) [38]: inactive
- zone of inhibition at 40 µg/disc [39]: 19 mm
- zone of inhibition at 40 µg/disc [40]: 23 mm
- diameter of the inhibition zone (DIZ) [41]: inactive
- zone of inhibition at 40 µg/disc [42]: 18 mm
- MIC [3]: 0.05 µg/mL (≈ 0.114 µM)
- zone of inhibition at 40 µg/disc [43]: 10 mm
- zone of inhibition at 40 µg/disc [44]: 15 mm
- diameter of the inhibition zone (DIZ) [45]: inactive
- MIC [46]: 1.56 µg/mL (≈ 3.57 µM)
- diameter of the inhibition zone (DIZ) [47]: inactive
- zone of inhibition at 40 µg/disc [48]: 9 mm
- zone of inhibition at 40 µg/disc [49]: 17 mm
- diameter of the inhibition zone (DIZ) [50]: inactive
- diameter of the inhibition zone (DIZ) [51]: inactive
- diameter of the inhibition zone (DIZ) [52]: inactive
- zone of inhibition at 40 µg/disc [53]: 23 mm
- zone of inhibition at 40 µg/disc [54]: 24 mm
